According to patent publication US20230295197A1, “STAT5 and STAT6 Degraders and Uses Thereof” (REGENTS OF THE UNIVERSITY OF MICHICAN, priority 2022, published 2023):
Read-outs that look alike come from different tables or passages of the source. *1 amine or outer side, *2 acyl side, *3 side chain or, on linkers, in order; H or OH if unused. Where a SMILES comes first, the peptide text is derived from it. [ ]: non-standard residue; d: D form. The star is where a group is joined. Benzothienyl2CO(5-CF2PO3H2) = O=C(c1cc2cc(C(F)(F)P(=O)(O)O)ccc2s1)*; βAla(N-(4-Br-phenyl)) = O=C(CCN(c1ccc(Br)cc1)[*:1])[*:2]; NHBn(4-(4-Me-thiazol-5-yl)) = Cc1ncsc1-c1ccc(CN*)cc1; Hyp = O=C(O)[C@@H]1C[C@@H](O)CN1; Tle = CC(C)(C)[C@H](N)C(=O)O; Ahp = NCCCCCCC(=O)O

Biological target: T1, STAT6 (Homo sapiens, UniProt P42226)
T1 construct: endogenous in cells; host or cells: MOLM-16, KU-812, SKNO1, MB231, L1236
T1 sequence (P42226 1-847): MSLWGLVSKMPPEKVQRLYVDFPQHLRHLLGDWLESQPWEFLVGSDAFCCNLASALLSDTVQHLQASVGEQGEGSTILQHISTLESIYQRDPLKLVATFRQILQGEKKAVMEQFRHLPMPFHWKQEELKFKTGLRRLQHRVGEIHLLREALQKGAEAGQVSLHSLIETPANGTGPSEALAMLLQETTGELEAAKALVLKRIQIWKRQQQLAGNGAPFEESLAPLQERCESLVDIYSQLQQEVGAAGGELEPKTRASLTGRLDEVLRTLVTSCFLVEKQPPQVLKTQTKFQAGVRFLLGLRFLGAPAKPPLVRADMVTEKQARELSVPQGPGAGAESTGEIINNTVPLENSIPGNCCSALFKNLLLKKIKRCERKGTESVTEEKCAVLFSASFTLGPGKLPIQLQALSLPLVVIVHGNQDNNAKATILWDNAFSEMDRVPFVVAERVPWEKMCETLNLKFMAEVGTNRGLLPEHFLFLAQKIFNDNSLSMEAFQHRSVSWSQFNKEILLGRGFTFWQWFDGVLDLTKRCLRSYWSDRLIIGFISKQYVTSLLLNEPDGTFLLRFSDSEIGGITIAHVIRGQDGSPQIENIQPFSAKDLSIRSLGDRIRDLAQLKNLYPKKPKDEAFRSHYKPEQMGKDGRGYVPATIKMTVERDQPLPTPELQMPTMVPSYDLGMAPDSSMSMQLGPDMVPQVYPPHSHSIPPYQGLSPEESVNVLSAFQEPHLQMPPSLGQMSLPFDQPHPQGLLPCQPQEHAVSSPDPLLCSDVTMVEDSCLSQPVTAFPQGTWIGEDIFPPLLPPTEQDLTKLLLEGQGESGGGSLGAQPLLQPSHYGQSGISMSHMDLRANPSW
Test: Immunoblotting (Western blot) analysis of STAT6 degradation efficiency of degraders in treated cells
Type: cell-based
Summary of the method: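 Degradation read by quantitative near-infrared Western blot: equal protein loads (20-40 μg) from compound-treated versus untreated cells, probed overnight at 4° C. for STAT5 or STAT6 with GAPDH reference. Compound concentrations and exposure times as indicated; cells grown in medium with 10% FBS at 37° C.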

[1] = MOLM-16 cells, class symbols, read-out: DC50 S6 MOLM-16
[2] = L1236 cells, read-out: DC50 S6 L1236

Compound `CC(C)(C)[C@H](NC(=O)c1cc2cc(C(F)(F)P(=O)(O)O)ccc2s1)C(=O)N1C[C@H](OCCCCCC#Cc2cccc3c2CN(C2CCC(=O)NC2=O)C3=O)C[C@H]1C(=O)N1CCO[C@H](c2ccccc2)C1` (stereo partly drawn) [Compound 600, ((2-(((2S)-1-((2S,4R)-4-((7-(2-(2,6-dioxopiperidin-3-yl)-1-oxoisoindolin-4-yl)hept-6-yn-1-yl)oxy)-2-((R)-2-phenylmorpholine-4-carbonyl)pyrrolidin-1-yl)-3,3-dimethyl-1-oxobutan-2-yl)carbamoyl)benzo[b]thiophen-5-yl)difluoromethyl)phosphonic acid] has a DC50 (MOLM-16 cells, numeric bound, read-out: DC50 S6 MOLM-16) of over 0.3 µM.
Work on `Cc1cc([C@H](C(=O)N2C[C@H](O)C[C@H]2C(=O)N[C@@H](CC(=O)NCCOCCOCCOCCNC(=O)CCN(C(=O)[C@@H]2CCCN2C(=O)[C@@H](NC(=O)c2cc3cc(C(F)(F)P(=O)(O)O)ccc3s2)C(C)(C)C)c2ccc(Br)cc2)c2ccc(-c3scnc3C)cc2)C(C)C)on1` [Compound 409, ((2-(((S)-1-((S)-2-((4-bromophenyl)((S)-1-((2S,4R)-4-hydroxy-1-((R)-3-methyl-2-(3-methylisoxazol-5-yl)butanoyl)pyrrolidin-2-yl)-3-(4-(4-methylthiazol-5-yl)phenyl)-1,5,19-trioxo-9,12,15-trioxa-2,6,18-triazahenicosan-21-yl)carbamoyl)pyrrolidin-1-yl)-3,3-dimethyl-1-oxobutan-2-yl)carbamoyl)benzo[b]thiophen-5-yl)difluoromethyl)phosphonic acid] yielded a DC50 (MB231 cells, read-out: DC50 S6 MB231) of over 10 µM.
Work on `CC(C)(C)[C@H](NC(=O)c1cc2cc(C(F)(F)P(=O)(O)O)ccc2s1)C(=O)N1Cc2cc(OCC(=O)NCC#Cc3cccc4c3C(=O)N(C3CCC(=O)NC3=O)C4=O)ccc2C[C@H]1C(=O)N1CCO[C@H](c2ccccc2)C1` (stereo partly drawn) [Compound 535, ((2-(((2S)-1-((3S)-7-(2-((3-(2-(2,6-dioxopiperidin-3-yl)-1,3-dioxoisoindolin-4-yl)prop-2-yn-1-yl)amino)-2-oxoethoxy)-3-((R)-2-phenylmorpholine-4-carbonyl)-3,4-dihydroisoquinolin-2(1H)-yl)-3,3-dimethyl-1-oxobutan-2-yl)carbamoyl)benzo[b]thiophen-5-yl)difluoromethyl)phosphonic acid] yielded a DC50 [1] of 0.1 to 1 µM.
Work on `CC(C)(C)[C@H](NC(=O)c1cc2cc(C(F)(F)P(=O)(O)O)ccc2s1)C(=O)N1C[C@@H](OCC(=O)NCCCCCC#Cc2ccc3c(c2)C(=O)N(C2CCC(=O)NC2=O)C3=O)C[C@H]1C(=O)N1CCC[C@H](c2ccccc2)C1` (stereo partly drawn) [Compound 502, ((2-(((2S)-1-((2S,4S)-4-(2-((7-(2-(2,6-dioxopiperidin-3-yl)-1,3-dioxoisoindolin-5-yl)hept-6-yn-1-yl)amino)-2-oxoethoxy)-2-((R)-3-phenylpiperidine-1-carbonyl)pyrrolidin-1-yl)-3,3-dimethyl-1-oxobutan-2-yl)carbamoyl)benzo[b]thiophen-5-yl)difluoromethyl)phosphonic acid] yielded a DC50 [1] of over 10 µM.
Work on `Cc1ncsc1-c1ccc([C@H](C)NC(=O)[C@@H]2C[C@@H](O)CN2C(=O)[C@@H](NC(=O)CNC(=O)COc2ccc3c(c2)CN(C(=O)[C@@H](NC(=O)c2cc4cc(C(F)(F)P(=O)(O)O)ccc4s2)C(C)(C)C)[C@H](C(=O)N2CCO[C@H](c4ccccc4)C2)C3)C(C)(C)C)cc1` [Compound 461, (difluoro(2-(((S)-1-((S)-7-(2-((2-(((S)-1-((2S,4R)-4-hydroxy-2-(((S)-1-(4-(4-methylthiazol-5-yl)phenyl)ethyl)carbamoyl)pyrrolidin-1-yl)-3,3-dimethyl-1-oxobutan-2-yl)amino)-2-oxoethyl)amino)-2-oxoethoxy)-3-((R)-2-phenylmorpholine-4-carbonyl)-3,4-dihydroisoquinolin-2(1H)-yl)-3,3-dimethyl-1-oxobutan-2-yl)carbamoyl)benzo[b]thiophen-5-yl)methyl)phosphonic acid] yielded a DC50 [2] of over 10 µM and a DC50 [1] of over 10 µM.
`CC(C)(C)[C@H](NC(=O)c1cc2cc(C(F)(F)P(=O)(O)O)ccc2s1)C(=O)N1Cc2cc(OCC(=O)NCCCC#Cc3cccc4c3C(=O)N(C3CCC(=O)NC3=O)C4=O)ccc2C[C@H]1C(=O)N1CCO[C@H](c2ccccc2)C1` (stereo partly drawn) [Compound 539, ((2-(((2S)-1-((3S)-7-(2-((5-(2-(2,6-dioxopiperidin-3-yl)-1,3-dioxoisoindolin-4-yl)pent-4-yn-1-yl)amino)-2-oxoethoxy)-3-((R)-2-phenylmorpholine-4-carbonyl)-3,4-dihydroisoquinolin-2(1H)-yl)-3,3-dimethyl-1-oxobutan-2-yl)carbamoyl)benzo[b]thiophen-5-yl)difluoromethyl)phosphonic acid] showed a DC50 [1] of over 10 µM.
Work on `Cc1cc([C@H](C(=O)N2C[C@H](O)C[C@H]2C(=O)N[C@@H](CC(=O)NCCCCCCCCNC(=O)CO[C@@H]2C[C@@H](C(=O)N(C)c3ccc(Br)cc3)N(C(=O)[C@@H](NC(=O)c3cc4cc(C(F)(F)P(=O)(O)O)ccc4s3)C(C)(C)C)C2)c2ccc(-c3scnc3C)cc2)C(C)C)on1` [Compound 423, ((2-(((S)-1-((2S,4R)-2-((4-bromophenyl)(methyl)carbamoyl)-4-(2-((8-((S)-3-((2S,4R)-4-hydroxy-1-((R)-3-methyl-2-(3-methylisoxazol-5-yl)butanoyl)pyrrolidine-2-carboxamido)-3-(4-(4-methylthiazol-5-yl)phenyl)propanamido)octyl)amino)-2-oxoethoxy)pyrrolidin-1-yl)-3,3-dimethyl-1-oxobutan-2-yl)carbamoyl)benzo[b]thiophen-5-yl)difluoromethyl)phosphonic acid] yielded a DC50 [1] of over 10 µM.
With `CC(C)(C)[C@H](NC(=O)c1cc2cc(C(F)(F)P(=O)(O)O)ccc2s1)C(=O)N1C[C@@H](OCC(=O)NCCC#Cc2ccc3c(c2)C(=O)N(C2CCC(=O)NC2=O)C3=O)C[C@H]1C(=O)N1CCC[C@H](c2ccccc2)C1` (stereo partly drawn) [Compound 496, ((2-(((2S)-1-((2S,4S)-4-(2-((4-(2-(2,6-dioxopiperidin-3-yl)-1,3-dioxoisoindolin-5-yl)but-3-yn-1-yl)amino)-2-oxoethoxy)-2-((R)-3-phenylpiperidine-1-carbonyl)pyrrolidin-1-yl)-3,3-dimethyl-1-oxobutan-2-yl)carbamoyl)benzo[b]thiophen-5-yl)difluoromethyl)phosphonic acid] the DC50 [1] was over 10 µM.
Compound `CC(C)(C)[C@H](NC(=O)c1cc2cc(C(F)(F)P(=O)(O)O)ccc2s1)C(=O)N1CCN(C(=O)CC(=O)NCCCCCCCCCC#Cc2ccc3c(c2)C(=O)N(C2CCC(=O)NC2=O)C3=O)C[C@H]1C(=O)N1CCO[C@H](c2ccccc2)C1` (stereo partly drawn) [Compound 520, ((2-(((2S)-1-((2S)-4-(3-((11-(2-(2,6-dioxopiperidin-3-yl)-1,3-dioxoisoindolin-5-yl)undec-10-yn-1-yl)amino)-3-oxopropanoyl)-2-((R)-2-phenylmorpholine-4-carbonyl)piperazin-1-yl)-3,3-dimethyl-1-oxobutan-2-yl)carbamoyl)benzo[b]thiophen-5-yl)difluoromethyl)phosphonic acid] has a DC50 [1] of over 10 µM.
Compound `Cc1ncsc1-c1ccc(CNC(=O)[C@@H]2C[C@@H](O)CN2C(=O)[C@@H](NC(=O)CCCCCCNC(=O)CCN(C(=O)[C@@H]2CCCN2C(=O)[C@@H](NC(=O)c2cc3cc(C(F)(F)P(=O)(O)O)ccc3s2)C(C)(C)C)c2ccc(Br)cc2)C(C)(C)C)cc1` [Compound 399] ({Benzothienyl2CO(5-CF2PO3H2)}-[Tle]P[βAla(N-(4-Br-phenyl))][Ahp][Tle][Hyp]-{NHBn(4-(4-Me-thiazol-5-yl))}) has a DC50 (read-out: DC50 S6 MB231, MB231 cells) of over 10 µM.
`CC(C)(C)[C@H](NC(=O)c1cc2cc(C(F)(F)P(=O)(O)O)ccc2s1)C(=O)N1C[C@@H](NC(=O)CCCC#Cc2ccc3c(c2)CN(C2CCC(=O)NC2=O)C3=O)C[C@H]1C(=O)N1CCO[C@H](c2ccccc2)C1` (stereo partly drawn) [Compound 588, ((2-(((2S)-1-((2S,4S)-4-(6-(2-(2,6-dioxopiperidin-3-yl)-1-oxoisoindolin-5-yl)hex-5-ynamido)-2-((R)-2-phenylmorpholine-4-carbonyl)pyrrolidin-1-yl)-3,3-dimethyl-1-oxobutan-2-yl)carbamoyl)benzo[b]thiophen-5-yl)difluoromethyl)phosphonic acid] was tested, and the DC50 [2] was over 10 µM and the DC50 [1] was over 10 µM.
`CC(C)(C)[C@H](NC(=O)c1cc2cc(C(F)(F)P(=O)(O)O)ccc2s1)C(=O)N1C[C@@H](NC(=O)CCCCCC#Cc2cccc3c2CN(C2CCC(=O)NC2=O)C3=O)C[C@H]1C(=O)N1CCO[C@H](c2ccccc2)C1` (stereo partly drawn) [Compound 565, ((2-(((2S)-1-((2S,4S)-4-(8-(2-(2,6-dioxopiperidin-3-yl)-1-oxoisoindolin-4-yl)oct-7-ynamido)-2-((R)-2-phenylmorpholine-4-carbonyl)pyrrolidin-1-yl)-3,3-dimethyl-1-oxobutan-2-yl)carbamoyl)benzo[b]thiophen-5-yl)difluoromethyl)phosphonic acid] showed a DC50 [2] of over 10 µM and a DC50 [1] of over 10 µM.
